Measured values: patent US8940897B2, “1,3,4-oxadiazole and 1,3,4-thiadiazole β-lactamase inhibitors” (priority 2012, dated 2015)
Structures can show the parent of a compound that is named as a salt.

System: bacterial strains that express the class D cephalosporinase OXA-15
Assay: Synergy MIC / standard BLI potentiation MIC assay, strains expressing OXA-15;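 further: more active means a lower MIC or sMIC than Avibactam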
Assay type: cell-based, E. coli
Conditions: in the presence of a β-lactam; comparator Avibactam (CCC)
Method: Unless otherwise indicated, the activity of the BLI compounds can be described by the MIC value obtained from a Synergy MIC assay or a BLI potentiation assay (e.g as described herein), both of which are run in the presence of a β-lactam.
The experimental protocol was performed according to Clinical and Laboratory Standards Institute (CLSI) guidelines with modifications as described below (CLSI guidelines can be derived from the CLSI document M07-A9 published in January 2012: “Methods for Dilution Antimicrobial Susceptibility Tests for Bacteria That Grow Aerobically; Approved Standard-Ninth Edition”).
To prepare for MIC testing, frozen glycerol stocks of clinical isolates (Klebsiella pneumoniae, Eschericia coli, Enterobacter spp, Citrobacter spp, or Pseudomonas aeruginosa) were used to streak for isolated colonies on rich, non-selective, tryptic soy agar containing 5% sheep's blood (TSAB). Frozen glycerol stocks of laboratory engineered, isogenic E. coli strains, which contain cloned β-lactamase expressing plasmids were used to streak for isolated colonies on rich, selective LB agar supplemented with 25 μg/mL tetracycline to maintain the plasmid. All strains were incubated at 37° C. for 18-24 hrs.
On the day of testing, primary cultures were started by scraping off 5-10 colonies from the TSAB plates containing clinical strains or the tetracycline supplemented LB plates containing engineered strains. The clinical strain material was suspended in ˜5 mL of cation adjusted Mueller Hinton Broth (CAMHB) in 14 mL culture tubes. The engineered strain material was suspended in CAMHB (supplemented with 25 μg/mL tetracycline) in 14 mL culture tubes. All strains were incubated at 37° C. with aeration (200 rpm) for ˜2 hrs until the optical density at 600 nm (OD600) was ≧0.1.
The two compound components of the assay were each diluted in CAMHB and added to the 96-well broth microdilution assay plates. 50 μL of the β-lactam was added to each well of the assay plate in 2-fold dilutions with final concentrations ranging from 128 to 0.13 μg/mL. 25 μL of the BLI compound was added to all wells in the broth microdilution plates at a final concentration of 4 μg/mL. Inoculum cultures were prepared by standardizing the primary cultures to OD600=0.1 and then adding 20 μL of the adjusted primary culture per 1 mL CAMHB for clinical strains or CAMHB (supplemented with tetracycline at 100 μg/mL) for engineered strains, so that the final inoculum density was ˜10^5 colony forming units per milliliter. Diluted inoculum cultures were used to inoculate 25 μl, per well in 96-well broth microdilution assay plates. The final volume of each well was 100 μL and contained a β-lactam at different concentrations, a BLIcompound at 4 μg/mL concentration, the bacterial culture at an OD600 of approximately 0.001 and when necessary tetracycline at 25 μg/mL.
Plates were incubated for 18-20 hours at 37° C. with aeration (200 rpm). Following incubation, growth was confirmed visually placing plates over a viewing apparatus (stand with a mirror underneath) and then OD600 was measured using a SpectraMax 340PC384 plate reader (Molecular Devices, Sunnyvale, Calif.). Growth was defined as turbidity that could be detected with the naked eye or achieving minimum OD600 of 0.1. MIC values were defined as the lowest concentration producing no visible turbidity.
The synergy MIC (sMIC) assay determines the concentration of the BLI required to potentiate the activity of a fixed concentration of a β-lactam antibiotic against β-lactamase producing bacterial strains. The experimental protocol was performed according to Clinical and Laboratory Standards Institute (CLSI) guidelines with modifications as described below (CLSI guidelines can be derived from the CLSI document M07-A9 published in January 2012: “Methods for Dilution Antimicrobial Susceptibility Tests for Bacteria That Grow Aerobically; Approved Standard-Ninth Edition”). […]

Row | Structure (SMILES) | activity against bacterial strains that express OXA-15 β-lactamase compared with Avibactam
1 | N=C(N)NCc1nnc([C@@H]2CC[C@@H]3CN2C(=O)N3OS(=O)(=O)O)o1 [Compound 704, (2S,5R)-2-(5-(guanidinomethyl)-1,3,4-oxadiazol-2-yl)-7-oxo-1,6-diazabicyclo[3.2.1]octan-6-yl hydrogen sulfate] | more active than Avibactam
2 | Nc1nnc([C@@H]2CC[C@@H]3CN2C(=O)N3OS(=O)(=O)O)o1 [Compound 707, (2S,5R)-2-(5-amino-1,3,4-oxadiazol-2-yl)-7-oxo-1,6-diazabicyclo[3.2.1]octan-6-yl hydrogen sulfate] | more active than Avibactam
3 | N=C(N)N1CCC(c2nnc([C@@H]3CC[C@@H]4CN3C(=O)N4OS(=O)(=O)O)o2)CC1 [Compound 712, (2S,5R)-2-(5-(1-carbamimidoylpiperidin-4-yl)-1,3,4-oxadiazol-2-yl)-7-oxo-1,6-diazabicyclo[3.2.1]octan-6-yl hydrogen sulfate] | more active than Avibactam
4 | O=C1N2C[C@@H](CC[C@H]2c2nnc(N3CCNCC3)o2)N1OS(=O)(=O)O [Compound 713, (2S,5R)-7-oxo-2-(5-(piperazin-1-yl)-1,3,4-oxadiazol-2-yl)-1,6-diazabicyclo[3.2.1]octan-6-yl hydrogen sulfate] | more active than Avibactam
5 | N=C(N)NCCCc1nnc([C@@H]2CC[C@@H]3CN2C(=O)N3OS(=O)(=O)O)o1 [Compound 714, (2S,5R)-2-(5-(3-guanidinopropyl)-1,3,4-oxadiazol-2-yl)-7-oxo-1,6-diazabicyclo[3.2.1]octan-6-yl hydrogen sulfate] | more active than Avibactam
6 | NCC(O)c1nnc([C@@H]2CC[C@@H]3CN2C(=O)N3OS(=O)(=O)O)o1 (stereo partly drawn) [Compound 715, (2S,5R)-2-(5-(2-amino-1-hydroxyethyl)-1,3,4-oxadiazol-2-yl)-7-oxo-1,6-diazabicyclo[3.2.1]octan-6-yl hydrogen sulfate] | more active than Avibactam
7 | NCCNCCc1nnc([C@@H]2CC[C@@H]3CN2C(=O)N3OS(=O)(=O)O)o1 [Compound 716, (2S,5R)-2-(5-(2-((2-aminoethyl)amino)ethyl)-1,3,4-oxadiazol-2-yl)-7-oxo-1,6-diazabicyclo[3.2.1]octan-6-yl hydrogen sulfate] | more active than Avibactam
8 | NCC(N)c1nnc([C@@H]2CC[C@@H]3CN2C(=O)N3OS(=O)(=O)O)o1 (stereo partly drawn) [Compound 717, (2S,5R)-2-(5-(1,2-diaminoethyl)-1,3,4-oxadiazol-2-yl)-7-oxo-1,6-diazabicyclo[3.2.1]octan-6-yl hydrogen sulfate] | more active than Avibactam
9 | O=C1N2C[C@@H](CC[C@H]2c2nnc(C3CCNCC3)s2)N1OS(=O)(=O)O [Compound 719, (2S,5R)-7-oxo-2-(5-(piperidin-4-yl)-1,3,4-thiadiazol-2-yl)-1,6-diazabicyclo[3.2.1]octan-6-yl hydrogen sulfate] | more active than Avibactam
10 | O=C1N2C[C@@H](CC[C@H]2c2nnc(CC3CNC3)o2)N1OS(=O)(=O)O [Compound 725, (2S,5R)-2-(5-(azetidin-3-ylmethyl)-1,3,4-oxadiazol-2-yl)-7-oxo-1,6-diazabicyclo[3.2.1]octan-6-yl hydrogen sulfate] | more active than Avibactam
11 | NCC(O)Cc1nnc([C@@H]2CC[C@@H]3CN2C(=O)N3OS(=O)(=O)O)o1 (stereo partly drawn) [Compound 733, (2S,5R)-2-(5-(3-amino-2-hydroxypropyl)-1,3,4-oxadiazol-2-yl)-7-oxo-1,6-diazabicyclo[3.2.1]octan-6-yl hydrogen sulfate] | more active than Avibactam
12 | N=C(N)N[C@H]1C[C@H](c2nnc([C@@H]3CC[C@@H]4CN3C(=O)N4OS(=O)(=O)O)o2)C1 [Compound 748, (2S,5R)-2-(5-((1r,3S)-3-guanidinocyclobutyl)-1,3,4-oxadiazol-2-yl)-7-oxo-1,6-diazabicyclo[3.2.1]octan-6-yl hydrogen sulfate] | more active than Avibactam
13 | N[C@H]1C[C@H](NCc2nnc([C@@H]3CC[C@@H]4CN3C(=O)N4OS(=O)(=O)O)o2)C1 [Compound 757, (2S,5R)-2-(5-(((1r,3S)-3-aminocyclobutyl)amino)methyl)-1,3,4-oxadiazol-2-yl)-7-oxo-1,6-diazabicyclo[3.2.1]octan-6-yl hydrogen sulfate] | more active than Avibactam
14 | O=C1N2C[C@@H](CC[C@H]2c2nnc(CNC3CCNCC3)o2)N1OS(=O)(=O)O [Compound 769, (2S,5R)-7-oxo-2-(5-((piperidin-4-ylamino)methyl)-1,3,4-oxadiazol-2-yl)-1,6-diazabicyclo[3.2.1]octan-6-yl hydrogen sulfate] | more active than Avibactam
15 | NC1CCN(c2nnc([C@@H]3CC[C@@H]4CN3C(=O)N4OS(=O)(=O)O)o2)CC1 [Compound 773, (2S,5R)-2-(5-(4-aminopiperidin-1-yl)-1,3,4-oxadiazol-2-yl)-7-oxo-1,6-diazabicyclo[3.2.1]octan-6-yl hydrogen sulfate] | more active than Avibactam
16 | O=C1N2C[C@@H](CC[C@H]2c2nnc([C@@H]3CNCCN3)o2)N1OS(=O)(=O)O [Compound 778, (2S,5R)-7-oxo-2-(5-((S)-piperazin-2-yl)-1,3,4-oxadiazol-2-yl)-1,6-diazabicyclo[3.2.1]octan-6-yl hydrogen sulfate] | more active than Avibactam
17 | N[C@H]1CC[C@@H](c2nnc([C@@H]3CC[C@@H]4CN3C(=O)N4OS(=O)(=O)O)o2)CC1 [Compound 780, (2S,5R)-2-(5-((1s,4R)-4-aminocyclohexyl)-1,3,4-oxadiazol-2-yl)-7-oxo-1,6-diazabicyclo[3.2.1]octan-6-yl hydrogen sulfate] | more active than Avibactam
18 | N[C@H]1CC[C@H](c2nnc([C@@H]3CC[C@@H]4CN3C(=O)N4OS(=O)(=O)O)o2)CC1 [Compound 781, (2S,5R)-2-(5-((1r,4S)-4-aminocyclohexyl)-1,3,4-oxadiazol-2-yl)-7-oxo-1,6-diazabicyclo[3.2.1]octan-6-yl hydrogen sulfate] | more active than Avibactam
19 | O=C1N2C[C@@H](CC[C@H]2c2nnc(CCCN3CCNCC3)o2)N1OS(=O)(=O)O [Compound 792, (2S,5R)-7-oxo-2-(5-(3-(piperazin-1-yl)propyl)-1,3,4-oxadiazol-2-yl)-1,6-diazabicyclo[3.2.1]octan-6-yl hydrogen sulfate] | more active than Avibactam
20 | O=C1N2C[C@@H](CC[C@H]2c2nnc(N3CCNCC3)s2)N1OS(=O)(=O)O [Compound 797, (2S,5R)-7-oxo-2-(5-(piperazin-1-yl)-1,3,4-thiadiazol-2-yl)-1,6-diazabicyclo[3.2.1]octan-6-yl hydrogen sulfate] | more active than Avibactam
